The results in this text go back to patent EP3338775B1, “USE OF BUTYLIDENEPHTHALIDE” (Everfront Biotech Inc., priority 2015, dated 2017).

Data set [1] has as its system brain CSCs ^CD133+. Briefly: MTT cell viability assay on brain CSCs CD133+. Type of data set: cell-based. An excerpt:
Thereafter, a cell viability assay, MTT assay, was utilized to analyze the viabilities of brain CSCs ^CD133+ and malignant glioma DBTRG cells. […]

Data set [2] concerns NHOKs (normal human oral keratinocytes). Briefly: MTT viability assay on normal human oral keratinocytes. Type of data set: cell-based. Conditions: BP 0, 25, 50 and 100 µg/ml for 24 hours; Figure 2. Here is the method: (§1) NHOKs (normal human oral keratinocytes) and HNC-TIC (head and neck cancer-derived tumor initiating cell)-like oral stem cells (i.e., ALDH1^+CD44^+-1 cell line or ALDH1^+CD44^+-2 cell line) were treated with different concentrations (0, 25, 50 and 100 µg/ml) of BP for 24 hours, and then, an MTT assay was utilized to analyzed the viabilities of NHOKs and HNC-TIC-like oral stem cells (i.e., ALDH1^+CD44^+-1 cell line and ALDH1^+CD44^+-2 cell line).

Data set [3] relates to HNC-TIC-like oral stem cells (ALDH1^+CD44^+-1 cell line, ALDH1^+CD44^+-2 cell line). Description: MTT viability assay on HNC-TIC-like oral stem cells. It counts as cell-based. Conditions: BP 0, 25, 50 and 100 µg/ml for 24 hours; both cell lines; Figure 2. As for the experimental part: as §1
A further data set has as its system Sox-2 and Oct4 proteins. Briefly: Western blotting of stemness-maintenance markers in HNC-TIC-like oral stem cells. It counts as cell-based. The settings on record: BP 0, 12.5, 25 and 50 µg/ml for 24 hours; both cell lines; Figure 7.
Another data set relates to ALDH. Briefly: ALDEFLUOR flow cytometry analysis of ALDH activity in HNC-TIC-like oral stem cells. Type of data set: cell-based. The settings on record: group without DEAB addition; BP 0, 25 and 50 µg/ml for 24 hours; Figure 8. As for the experimental part:
ALDH protein is also an important stemness-maintenance marker of cancer stem cells and participates in the regulation of the self-renewal and differentiation of cancer stem cells. HNC-TIC-like oral stem cells (i.e., ALDH1^+CD44^+-1 cell line or ALDH1^+CD44^+-2 cell line) were treated with different concentrations (0, 25 and 50 µg/ml) of BP for 24 hours, and then, 1 ×10^5 cells obtained from each group were separately suspended in 50 µl of a stem cell detection kit (i.e., ALDEFLUOR array kit, purchased from […] Technologies Inc., Vancouver, Canada) buffer and the cell suspension of each group was separately added with ALDEFLUOR to a final concentration of 1 µM. Thereafter, a sample of each group was stained by […] and then analyzed by flow cytometry analysis to determine the ALDH activity of HNC-TIC-like oral stem cells (i.e., ALDH1^+CD44^+-1 cell line and ALDH1^+CD44^+-2 cell line).
The above experimental procedure was repeated, but the cell suspension of each group was further added with N,N-diethylaminobenzaldehyde (DEAB, i.e., an inhibitor of ALDH) to a final concentration of 150 µM of DEAB separately.

For data set [4], the system named is Axl and Gas6 proteins, Axl gene. Briefly: Western blotting and RT-PCR of Axl and Gas6 in brain CSCs CD133+. It counts as cell-based. The settings on record: BP 0, 12.5, 25, 50, 62.5 and 75 µg/ml for 24 hours, Figures 9A, 9B. Here is the method: It has been known that the expression of Axl (i.e., a receptor tyrosine kinase) is related to the ability of cancer stem cells in proliferation, anti-apoptosis, migration and invasion. Brain CSCs ^CD133+ was treated with different concentrations (0, 12.5, 25, 50, 62.5 and 75 µg/ml) of BP for 24 hours, and then, proteins and total RNA were extracted from the cells to conduct Western blotting and reverse transcriptase-polymerase chain reaction (RT-PCR) to determine the expressions of Axl and Gas6 (i.e., a ligand of Axl) proteins and the expression of Axl gene in the BP-treated brain CSCs ^CD133+.

A further data set deals with MMP-2. Description: Western blotting of MMP-2 protein in brain CSCs CD133+. It counts as cell-based. The settings on record: BP 0, 12.5, 25, 50, 62.5 and 75 µg/ml for 24 hours, Figure 10. Here is the method:
It has been known that at the start of the invasion of cancer stem cells, the extracellular matrix (ECM) is degraded by matrix metalloproteinases (MMPs). Wherein, the expressions of gelatinases, such as gelatinase-A (i.e., MMP-2) and gelatinase-B (i.e., MMP-9), are highly related to the histopathology of tumor metastasis. Brain CSCs ^CD133+ was treated with different concentrations (0, 12.5, 25, 50, 62.5 and 75 µg/ml) of BP for 24 hours, and then, proteins were extracted from the cells to conduct Western blotting to determine the expression of MMP-2 protein in the BP-treated brain CSCs ^CD133+.

In data set [5] the test system is brain CSCs ^CD133+. Description: Wound healing assay with brain CSCs CD133+. Type of data set: cell-based. Conditions: BP 0-75 µg/ml or BCNU 0-400 µM for 24 hours; Figure 13. The text has this: In this research, a wound healing assay was used to further investigate the effect of BP on inhibiting the metastasis of cancer stem cells.
Data set [6] relates to HNC-TIC-like oral stem cells stably transfected with GFP-tagged constructs. Description: Tumor initiating activity animal experiment, subcutaneous GFP-tagged HNC-TIC-like oral stem cells in nude mice. Type of data set: in vivo, BALB/c nu/nu mice. As for the experimental part: In this research, the effect of BP on inhibiting the tumor initiating activity of cancer stem cells was further investigated by animal experiments. First, 5-6 weeks old BALB/c nu/nu mice (weight 18-22 g) were bred under the same condition for 4 weeks. Then, HNC-TIC-like oral stem cells stably transfected with GFP-tagged constructs were injected (1×10^4 cells/0.1 mL/mouse) subcutaneously into the axilla of mice. After tumors reached 100 mm^3, mice were grouped into one control group and two experimental groups (three groups in total, n=3 per group). Then, one experimental group was injected daily with 100 mg/kg of BP for 6 days and another experimental group was injected daily with 200 mg/kg of BP for 6 days. The control group was injected daily with a vehicle (without BP) for 6 days. Ten days after the injection of BP or vehicle, the length and width were measured every 2 days (22 days in total), and then, the average tumor volume was calculated according to the following Formula 1. At the same time, the GFP signal (i.e., green fluorescence) of each group was detected and photographed by the IVIS Imaging system. The GFP intensity of each group was analyzed by Image-Pro Plus software. [length×width^2]/2((unit:mm)^3) [formula]

Several values for one entry are separate records, joined by “and”; a condition that tells them apart may be missing. Identical values can stand only once.

`CCCC=C1OC(=O)c2ccccc21` [BP, butylidenephthalide]: the “viability of brain CSCs ^CD133+” value in the data set on brain CSCs ^CD133+ [1] (24-hour group and 48-hour group, BP 0-100 µg/ml, BCNU 0-1000 µM, Figure 1A, 1B) is “significantly decreased”. For the same compound, the IC50 with brain CSCs ^CD133+ [1] (24 h, read-out: IC50 to brain CSCs ^CD133+) is 406 µM and 76.5 µg/mL. Further, in [2], the “viability of NHOKs” value is “did not decrease”. The “viability of HNC-TIC-like oral stem cells” value in data set [3] is “decreased along with the increment in the concentration of BP”. Also, the “expressions of Sox-2 and Oct4 proteins in the HNC-TIC-like oral stem cells” value in the data set with Sox-2 and Oct4 proteins is “significantly decreased”. Moreover, in the data set on ALDH, the “number of live cells with ALDH activity” value is on record as “increased along with the increment in the concentration of BP”. Further, the “expressions of Axl and Gas6 proteins and the expression of Axl gene” value in data set [4] was “significantly decreased”. Also, in the data set with MMP-2, the “expression of MMP-2 protein” value is listed as “significantly decreased”. In addition, the “number of brain CSCs ^CD133+ migrated to the wound” value in the data set on brain CSCs ^CD133+ [5] was “significantly decreased”. The GFP intensity result in [6] (100 mg/kg and 200 mg/kg groups, injected daily for 6 days, compared to control group, Figures 16C, 16D) is reported as “significantly decreased”. The tumor volume entry in data set [6] (100 mg/kg and 200 mg/kg groups, injected daily for 6 days, over a period of time after BP injection, Figure 16B) was “decreased”. Besides, in data set [6] (100 mg/kg or 200 mg/kg of BP injected daily for 6 days, Figure 16A), the “body weight of mice” value is “didn't change significantly”.
